Experimental data as given in patent US20090209527A1, “Methods for Using Rapamycin Analogues in the Treatment of Neurological Disorders” (Wyeth, priority 2008, published 2009).
“Also recorded” adds a separate entry of the source.

Columns and labels:
[1] = test system: cortical neuron cultures; experiment: Cortical neuron assay (neurite outgrowth in dissociated cortical neuron cultures); type: cell-based, rat
Method: Dissociated cortical neuron cultures were prepared as previously described (Liu et al., Screening of Immunophilin Ligands by Quantitative Analysis of Neurofilament Expression and Neurite Outgrowth in Cultured Neurons and Cells, J. Neurosci. Methods, 2007 Jul. 30; 163(2):310-20).
Briefly, embryonic day 15 rat fetuses were collected and dissected in ice-cold PBS. Dissected cortices were pooled together and transferred to an enzymatic dissociation medium containing papain. After 30 minutes, the tissue was mechanically triturated with a fire-polished glass Pasteur pipette. Single-cell suspensions in complete media were seeded on poly-L-ornithine and laminin coated 96-well plates. After 24 hours, cultures were treated with various concentrations of compound for 72 hours. The cultures were then fixed and stained with an anti-tubulin primary antibody (TUJ-1) and a fluorescent-tagged secondary antibody. Neurite outgrowth was determined by using the Enhanced Neurite Outgrowth (ENO) algorithm with the Cellomics ArrayScan and expressed as average neurite length or total neurite length per cell.

[2] = test system: pMCAO in rats; experiment: Permanent occlusion of middle cerebral artery (pMCAO), Example 10, behavioral deficit scoring over 21 days; type: in vivo, Wistar rats; conditions: 10 mg/kg i.v. 1.5, 5.5, 24, 48 and 72 hours post ischemia
Method: Administration of Compound of Example 2—10 mg/kg i.v. 1.5, 5.5, 24, 48, and 72 hours post ischemia.
Adult male Wistar rats (Charles River, Wilmington, Mass.) 270 g to 300 g were anesthetized with 3% isoflurane in 70% nitrous oxide and 30% oxygen through a nose cone. Temperature was maintained at 37° C. throughout the surgery using a heating lamp. Permanent occlusion of MCAO was induced by electro cauterization of the distal portion of the MCA (via a craniotomy) with a 90 minute ligation of both carotid arteries to interrupt collateral circulation (Chen S T, Hsu C Y, Hogan E L, Maricq H Balentine J D (1986) A model of focal ischemic stroke in the rat: reproducible extensive cortical infarction. Stroke 17:738-743). Compound was administered 10 mg/kg i.v. 1.5, 5.5, 24, 48, and 72 hours post ischemia. Rats were kept for 21 days for long-term functional recovery evaluation. […] Rats extending both forelimbs toward the table were scored as 0, flexing contralateral limb toward the body and/or rotating the contralateral shoulder and limb medially were scored as 1, and rolling up the body toward the contralateral side and attempting to grasp the tail were scored as 2. […] Rats retracting hind limb back on bench top immediately were scored as 0, delaying (>2 seconds) were scored as 1, and unable to retract hind limb were score as 2. […]

[3] = test system: pMCAO in rats; experiment: Further pMCAO studies, treatment paradigms (first dose 2, 6 or 24 hours post-occlusion); type: in vivo, rat; conditions: for neurological function following pMCAO vs vehicle: 5 total doses, 3-week period; for neurological function following pMCAO, long-term: additional 3 months
From the text: Rats were subjected to pMCAO and treated with either the compound of Example 2 delivered intravenously into rat tail vein [iv vehicle: 5% Tween 80, 5% PEG 400, 4% ethanol] or vehicle alone. Three different treatment paradigms were used to determine the clinical relevance of the compound of Example 2. Long-term sensorimotor deficits are monitored (tactile/proprioceptive/hindlimb placement tests) over a 3-week and 6-month period. The animals are scored on a scale of 0-12 (normal to severe neurological deficits).
In the first study, the first dose of 10 mg/kg of the compound of Example 2 is given 2 hours post-occlusion, followed by 4 additional doses, 24 hours apart (5 total doses). Neurological deficits were monitored over a 3-week period.
In the second study, the first dose of the compound of Example 2 is given 6 hours post-occlusion, followed by 4 additional doses, 24 hours apart (5 total doses). Neurological deficits were monitored over a 3-week period.
These animals were maintained for an additional 3 months. During this period, neurological deficits were continually monitored, to determine whether the effect seen at 21 days is stable and long lasting.
In the third study, the first dose of the compound of Example 2 is given 24 hours post-occlusion, followed by 4 additional doses, 24 hours apart (5 total doses). Neurological deficits were monitored over a 3-week period.
Brains from animals in the third study were collected and processed for neuronal, regenerative, and cell death markers.

[4] = 10 mg/kg iv, first dose 6 hours post-occlusion
[5] = 30 mg/kg iv, first dose 6 hours post-occlusion
[6] = 30 mg/kg, third study (first dose 24 hours post-occlusion)
[7] = 6 hour post-occlusion, dose not stated

SMILES: CO[C@H]1C[C@@H]2CC[C@@H](C)[C@@](O)(O2)C(=O)C(=O)N2CCCC[C@H]2C(=O)O[C@H]([C@H](C)C[C@@H]2CC[C@@H](O)[C@H](OC)C2)CC(=O)[C@H](C)/C=C(\C)[C@@H](O)[C@@H](OC)C(=O)[C@H](C)C[C@H](C)[C@@H]2CC[C@H](/C=C/1C)ON2c1ccccc1 [Example 2, 9,27-dihydroxy-3-{2-[4-hydroxy-3-methoxycyclohexyl]-1-methylethyl}-10,21-dimethoxy-6,8,12,14,20,26-hexamethyl-37-phenyl-4,9,10,12,13,14,15,16,17,18,21,22,23,24,25,26,27,32,33,34,34a-henicosahydro-3H-23,27-epoxy-18,15-(epoxyimino)pyrido[2,1-c][1,4]oxazacyclohentriacontine-1,5,11,28,29(6H,31H)-pentone]
- EC50 ([1]; Rattus norvegicus, Cortical neurone, 72 hours treatment, neurite outgrowth, read-out: EC50 in cortical neuron assays): < 1 µM
- neuronal survival and neurite outgrowth in cultured cortical neurons ([1]; summary statement): promotes neuronal survival and neurite outgrowth
- behavior deficit scoring (total score 0 to 12) following pMCAO [2]: statistically significant reduction of behavior deficit scoring
- neurological function following pMCAO vs vehicle ([3]; 3 mg/kg iv, first dose 6 hours post-occlusion): did not improve neurological function
- neurological function following pMCAO vs vehicle ([3]; 3 mg/kg iv, first dose 24 hours post-occlusion): did not improve neurological function
- neurological function following pMCAO vs vehicle ([3]; 10 mg/kg iv, first dose 2 hours post-occlusion): significantly improved and accelerated neurological function; also recorded: improves neurological function
- neurological function following pMCAO vs vehicle [3, 4]: significantly improved and accelerated neurological function
- neurological function following pMCAO, long-term [3, 4]: further improved neurological function and this improvement was stable and long lasting
- neurological function following pMCAO vs vehicle ([3]; 10 mg/kg iv, first dose 24 hours post-occlusion): did not improve neurological function
- neurological function following pMCAO vs vehicle [3, 5]: significantly improved and accelerated neurological function
- neurological function following pMCAO, long-term [3, 5]: further improved neurological function and this improvement was stable and long lasting
- neurological function following pMCAO vs vehicle ([3]; 30 mg/kg iv, first dose 24 hours post-occlusion): significantly improved and accelerated neurological function
- apoptotic cell death (TUNEL labeling) in the hippocampus [3, 6]: reducing apoptotic cell death
- neuroprotection (Neu-N positive cells) in the hippocampus [3, 6]: promotes neuroprotection
- neuroregeneration (GAP-43 labeling) in the cortex [3, 6]: promotes neuroregeneration in the cortex
- neurological function following pMCAO (3-weeks) in rats (FIG. 12) [3, 7]: improves neurological function
- neurological function following pMCAO (3 months) in rats (FIG. 13) [3, 7]: improves neurological function
- neurological function following pMCAO (3 weeks) in rats (FIG. 14) ([3]; 24 hour post-occlusion, dose not stated): improves neurological function
- neuroregeneration in the hippocampus (FIG. 15) ([3]; dose not stated): promotes neuroregeneration in the hippocampus
- therapeutic window (time of first administration after onset of stroke) ([3]; rat models of ischemic stroke): at least 24 hours
